Measurements published in publication PMC10624687 (Nature Communications, 2023).

Legend:
[1] = biological target: T1, HsClpP (mitochondrial caseinolytic protease P) (Homo sapiens, UniProt Q16740); assay: biochemical; parameters: gene CLPP
[2] = biological target: SaClpP (Staphylococcus aureus ClpP) (Staphylococcus aureus, UniProt Q2G036, I91W); assay: PAGE-based α-casein hydrolysis activation assay; DSF; format: biochemical
[3] = biological target: T2, HsClpP (mitochondrial caseinolytic protease P) (Homo sapiens, UniProt Q16740, W146I); assay: biochemical
T2 construct: gene CLPP

[4] = biological target: T3, HsClpP (mitochondrial caseinolytic protease P) (Homo sapiens, UniProt Q16740, Y118A); assay: PAGE-based α-casein degradation assay; NanoDSF; format: biochemical
T3 construct: gene CLPP

[5] = biological target: T1, HsClpP (mitochondrial caseinolytic protease P); assay: X-ray crystal structure at […] Å; DSF (ΔTm […] °C); EC50 from FITC-casein FI protease assay; CETSA; format: biochemical; parameters: gene CLPP; HsClpPΔ56 (N-terminus 56 amino acids truncated)

T1 sequence (Q16740 57-277): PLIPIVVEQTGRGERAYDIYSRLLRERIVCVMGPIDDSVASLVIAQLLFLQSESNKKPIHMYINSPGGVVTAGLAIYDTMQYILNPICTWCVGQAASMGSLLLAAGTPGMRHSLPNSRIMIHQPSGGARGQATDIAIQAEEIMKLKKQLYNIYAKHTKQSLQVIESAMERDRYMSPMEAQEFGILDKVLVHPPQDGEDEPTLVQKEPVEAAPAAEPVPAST
T2 sequence (Q16740 57-277 W146I): as the sequence (Q16740 57-277) above, with W90I counted along it
T3 sequence (Q16740 57-277 Y118A): as the sequence (Q16740 57-277) above, with Y62A counted along it

| SMILES | EC50 [1] | EC50 [2] | EC50 [3] | PAGE-based α-casein degradation assay; NanoDSF [4] | EC50 [5] |
| --- | --- | --- | --- | --- | --- |
| O=C(COc1ccc(Cl)cc1)N1CCN(Cc2cc(F)cc(F)c2)CC1 [ZK11] | 0.45 µM | 8.4 µM | 42.4 µM |  |  |
| O=C(NCc1ccc(Br)cc1)N1CCN(Cc2cc(F)cc(F)c2)CC1 [ZK53] |  | 5.4 µM | 11.8 µM | ZK53 is still effective to promote Y118A ClpP for α-casein degradation in PAGE assay | 0.22 µM |
